The numbers were not newly measured in patent US20180256534A1, “KETAMINE AND […] 450 INHIBITOR COMBINATIONS” (SEQUOIA PHARMACEUTICALS, INC., priority 2015, published 2018), which cites them from elsewhere.

Each structure is given as a SMILES string.

In data set [1] the test system is patients with major depressive disorders.

As for `CNC1(c2ccccc2Cl)CCCCC1=O` (centres unmarked) [ketamine], the “serum concentration at which psychotomimetic symptoms appear” value is given as “about 50 ng/ml”. Moreover, the “onset of rapid antidepressant effect” value in data set [1] is reported as “two”.
